# Laboratory results from US6201122A, “Fluoroaliphatic radical-containing anionic sulfonamido compounds” (3M Innovative Properties Company, priority 1992, dated 2001).
# Legend:
# Type in all cases: physicochemical
# [1] = surface tension of aqueous solutions (du Nouy tensiometer); conditions: diluted from 10% solids in water/isopropyl alcohol; for Surface tension (dynes/cm) at 100 ppm: 100 ppm (0.01% solids) in deionized water; for Surface tension (dynes/cm) at 500 ppm: 500 ppm (0.05% solids) in deionized water
# Experimental: (§1) In the following Examples and Comparative Examples, fluoroaliphatic radical-containing compounds were prepared. The surface tension of water and isopropyl alcohol solutions containing these compounds was measured using a du Nouy tensiometer. The foaming properties of these solutions were also evaluated by generating foam and measuring the foam volume and half life.
# The fluorochemical solutions obtained in Examples 1 to 6 and Comparative Examples C1 to C12 were diluted to 10% solids by dilution with a solution of 70% by volume water and 30% by volume isopropyl alcohol. Further dilutions to 0.01% solids (100 ppm), and 0.05% solids (500 ppm), were done with deionized water.
# [2] = foam half-life (seconds needed to drain 100 mL of solution from the foam); conditions: for Foam Half-Life: 200 mL of 500 ppm solution, seconds to drain 100 mL of solution from the foam; for foam half-life relative to anionic Comparative Examples C4 to C7 (in words): 500 ppm, versus anionic Comparative Examples C4 to C7
# Experimental: as §1
# (§2) Foam was generated from 200 mL of the 500 ppm solutions used for measuring surface tension. The surfactant solutions were mixed with a Hobart mixer for 3 minutes at medium speed. Foam volume (cubic centimeters of foam) was measured in a graduated cylinder. Foam half-life was measured as the seconds needed to drain 100 mL of solution from the foam.
# [3] = foam volume of surfactant solutions (Hobart mixer, graduated cylinder); conditions: for Foam Volume: 200 mL of 500 ppm solution, Hobart mixer 3 minutes at medium speed; for foam volume relative to anionic Comparative Examples C4 to C7 (in words): 500 ppm, versus anionic Comparative Examples C4 to C7
# Experimental: as §1, §2
Structure (SMILES),Surface tension (dynes/cm) at 100 ppm [1],Surface tension (dynes/cm) at 500 ppm [1],Foam Half-Life [2],Foam Volume [3],foam half-life relative to anionic Comparative Examples C4 to C7 (in words) [2],foam volume relative to anionic Comparative Examples C4 to C7 (in words) [3]
CC(C)(CS(=O)(=O)O)NC(=O)CCN1CCN(S(=O)(=O)C(F)(F)C(F)(F)C(F)(F)C(F)(F)C(F)(F)C(F)(F)C(F)(F)C(F)(F)F)CC1 [Example 3],20.3 dynes/cm,18.5 dynes/cm,–,–,–,–
CCN(CCC(=O)NCCC[N+](C)(C)CCCS(=O)(=O)[O-])S(=O)(=O)C(F)(F)C(F)(F)C(F)(F)C(F)(F)C(F)(F)C(F)(F)C(F)(F)C(F)(F)F [Comparative Example C9],20.0 dynes/cm,18.3 dynes/cm,0.583 min,900 cm^3,–,–
CCN(CCC(=O)NCCC[N+](C)(C)CC)S(=O)(=O)C(F)(F)C(F)(F)C(F)(F)C(F)(F)C(F)(F)C(F)(F)C(F)(F)C(F)(F)F [Comparative Example C8],20.5 dynes/cm,18.5 dynes/cm,less than 30 sec.,600 cm^3,–,–
O=C(O)CCNCCNS(=O)(=O)C(F)(F)C(F)(F)C(F)(F)C(F)(F)C(F)(F)C(F)(F)C(F)(F)C(F)(F)F [Example 2],16.8 dynes/cm,16.5 dynes/cm,less than 30 sec.,300 cm^3,significantly shorter foam half-life,much lower foam volume
CC(C)(CS(=O)(=O)O)NC(=O)CCNCCC[Si](C)(C)O[Si](C)(C)CCCNS(=O)(=O)C(F)(F)C(F)(F)C(F)(F)C(F)(F)F [Example 4],–,20.1 dynes/cm,–,–,–,–
CC(C)(CS(=O)(=O)O)NC(=O)CCNCCNS(=O)(=O)C(F)(F)C(F)(F)C(F)(F)C(F)(F)C(F)(F)C(F)(F)C(F)(F)C(F)(F)F [Example 1],18.3 dynes/cm,17.1 dynes/cm,less than 30 sec.,300 cm^3,significantly shorter foam half-life,much lower foam volume
CCN(CCC(=O)O)S(=O)(=O)C(F)(F)C(F)(F)C(F)(F)C(F)(F)C(F)(F)C(F)(F)C(F)(F)C(F)(F)F [Comparative Example C5],24.3 dynes/cm,20.7 dynes/cm,1.38 min,1500 cm^3,–,–
CCN(CC(=O)O)S(=O)(=O)C(F)(F)C(F)(F)C(F)(F)C(F)(F)C(F)(F)C(F)(F)C(F)(F)C(F)(F)F [Comparative Example C4],19.7 dynes/cm,16.4 dynes/cm,6.25 min,2600 cm^3,–,–
CCN(CCC(=O)O)S(=O)(=O)C(F)(F)C(F)(F)C(F)(F)C(F)(F)C(F)(F)C(F)(F)C(F)(F)C(F)(F)F [Comparative Example C6],19.9 dynes/cm,17.5 dynes/cm,4.08 min,1900 cm^3,–,–
C[N+](C)(CCCNS(=O)(=O)C(F)(F)C(F)(F)C(F)(F)C(F)(F)C(F)(F)C(F)(F)F)CC(=O)[O-] [Comparative Example C12],21.0 dynes/cm,19.4 dynes/cm,5.33 min,2400 cm^3,–,–
CC[N+](C)(CC)CCNS(=O)(=O)C(F)(F)C(F)(F)C(F)(F)C(F)(F)C(F)(F)C(F)(F)C(F)(F)C(F)(F)F [Comparative Example C11],18.1 dynes/cm,17.5 dynes/cm,5.33 min,2600 cm^3,–,–
CCN(CCC(=O)O)S(=O)(=O)C(F)(F)C(F)(F)C(F)(F)C(F)(F)C(F)(F)C(F)(F)C(F)(F)C(F)(F)F [Comparative Example C7],19.1 dynes/cm,17.2 dynes/cm,5 min,2200 cm^3,–,–
CCN(CCSC(CC(=O)O)C(=O)O)S(=O)(=O)C(F)(F)C(F)(F)C(F)(F)C(F)(F)C(F)(F)C(F)(F)C(F)(F)C(F)(F)F (stereo not drawn) [Example 6],–,19.3 dynes/cm,–,–,–,–
